# Test results reported in patent US11608320B2, “Oxazolidinone hydroxamic acid derivatives” (KUWAIT UNIVERSITY, priority 2020, dated 2023).
# What was measured:
# [1] = test system: antigen-induced airway hyperresponsiveness to methacholine; test: Allergen-induced airway hyperresponsiveness (AHR) in mouse model of asthma; format: in vivo; details: 15 or 30 mg/kg s.c., 1 h before and 1 h after each ovalbumin challenge
# Procedure: Inhibition of allergen-induced Airway hyperresponsiveness (AHR) and inflammation in mouse model of asthma; Immunization, challenge and drug treatment: Female mice, as specified above, were immunized intraperitoneally (i.p.) with 10 μg ovalbumin mixed with 0.2 ml of aluminum hydroxide gel (Alu-Gel-S; SERVA Electrophoresis GmbH, Heidelberg, Germany), on day 0 and repeated on day 7. On day 14, after the start of immunization, the animals were challenged intra-nasally, once a day for 4 consecutive days, with 50 μl of 0.06% ovalbumin solution in PBS. Control animals were similarly immunized with PBS and challenged intra-nasally with 50 μl PBS. All intra-nasal administrations were done following light anesthesia with halothane.
# The animals were divided into 5 groups A-E (10-14 animals per group). […]
# Different treatment groups were used for the AHR and cytology/histology studies. Twenty four hours after the last intra-nasal challenge/drug treatment, lung function was measured in some animals while in others bronchoalveolar lavage (BAL), cytology and histology were performed after they were sacrificed with overdose of halothane.
# Measurement of AHR: AHR was measured in individual mice using a Finepoint Series RC site (Buxco Research Systems, Wilmington, N.C., USA), according to the manufacturer's guidelines. […]
# [2] = test system: zymosan-induced peritonitis; test: Zymosan-induced peritoneal inflammation in mice; format: in vivo, mouse; details: 30 min before zymosan i.p., peritoneal exudate at 2 h
# Source text: Inhibition of zymosan-induced peritoneal inflammation in mice: Female Balb/c mice, 6-8 weeks old, obtained from the Animal Resources Center of the Health Sciences Center, Kuwait University, were used. They were maintained under temperature-controlled conditions with an artificial 12-h light/dark cycle and allowed standard chow and water ad libitum. The study protocol was approved by the “Health Sciences Center Animal Welfare Committee” and complied with the “Guidelines for the Care and Use of Laboratory Animals” of the Health Sciences Centre, Kuwait University. The zymosan-induced peritonitis model-a recognized LT-mediated inflammatory reaction, described particularly in Hanke et al., 2013 ([…]., et al. (2013). Journal of medicinal chemistry, 56(22), 9031-9044) was used. […] After 30 min, all groups were injected intraperitonally with 0.2 ml of activated zymosan (2 mg/ml) except the control group that received 0.2 ml PBS. After 2 h, all animals were killed and the peritoneal exudate was collected by washing the cavity with 3 ml of heparinized (10 IU/ml) PBS.
# [3] = test system: degranulation of bone marrow-derived mouse mast cells; test: Inhibition of degranulation (β-hexoseaminidase release) in allergen/IgE-activated BMMC; format: cell-based; details: anti-DNP IgE sensitized, DNP-BSA 30 ng/ml, 30 min
# Source text: Inhibition of LTC4 release and degranulation in allergen/IgE-activated bone marrow-derived mouse mast cells (BMMC): Bone marrow-derived mast cells (BMMC) were generated from pathogen-free 5-7 week old male Balb/c mice according to the method of Davis et al., [2004] (Davis, B. J., et al., (2004), Journal of Immunology, 173: 6914-6920). Essentially, bone marrow cells were obtained by flushing of the femoral bone marrow and cultured in RPMI 1640 medium supplemented with 10% FBS, 100 U/ml penicillin, and 100 μg/ml streptomycin, 25 mM HEPES, 1.0 mM sodium pyruvate, 0.1 mM nonessential amino acids, 0.0035% 2-mercaptoethanol, and 30 ng/ml mouse recombinant IL-3, with culture medium replaced every two days. Cells were used after 4-8 weeks of culture, by which time at least 97% of the cells would have differentiated into mast cells.
# The generated BMMCs were seeded at 5×10^4 cells/well in a 96-well flat-bottom culture plate and passively sensitized overnight with 0.5 μg/ml anti-DNP monoclonal IgE antibody (clone SPE-7, Sigma-Aldrich, St. Louis, Mo., USA). The cells were then washed twice to remove any unbound antibody and subsequently re-suspended in reaction buffer (135 mM NaCl, 5 mM KCl, 1.8 mM CaCl2), 1 mM MgCl2, 5.6 mM glucose, 0.05% BSA and 20 mM HEPES, pH 7.4). […] After 30 min incubation at 37° C., the amount of LTC4 released into the supernatant (as index of 5-LO activity) was determined by ELISA as described below.
# The concurrently-released granular enzyme, β-hexoseaminidase (as index of degranulation) was determined as described below.
# The beta-hexoseaminidase released into the supernatant by the degranulating BMMCs was determined colorimetrically using p-nitrophenyl-N-acetyl-β-D-glucosaminide as substrate. […] The absorbance of the colored product (p-nitrophenol) was then read at 405 nm in a microplate reader. Results were expressed as percentage of the total cell content (determined in cells lysed with 0.1% triton-x-100).
smiles,measurement,setting,value
"CCCCCCCC(=O)N(O)C[C@H]1CN(c2ccc(N3CCOCC3)c(F)c2)C(=O)O1 [PH-251, (R)—N-((3-(3-fluoro-4-morpholinophenyl)-2-oxooxazolidin-5-yl)methyl)-N-hydroxyoctanamide]",Development of antigen-induced AHR to inhaled methacholine (FIGS. 4A-4B),[1],almost completely abolished the development of AHR
same,Net Exudate Vol,[2]; 3 mg/kg s.c.,0.24 ± 0.05 mL
same,Total Cell No,[2]; 3 mg/kg s.c.,21.1 ± 1.6 ×10^6
same,Total LTC4,[2]; 3 mg/kg s.c.,101.7 ± 20.2 ng
same,Net Exudate Vol,[2]; 10 mg/kg s.c.,0.12 ± 0.08 mL
same,Total Cell No,[2]; 10 mg/kg s.c.,16.4 ±17 ×10^6
same,Total LTC4,[2]; 10 mg/kg s.c.,77.4 ± 16.8 ng
same,Net Exudate Vol,[2]; 30 mg/kg s.c.,0.04 ± 0.02 mL
same,Total Cell No,[2]; 30 mg/kg s.c.,17.6 ± 2.1 ×10^6
same,Total LTC4,[2]; 30 mg/kg s.c.,33.9 ± 4.9 ng
same,Inhibition of degranulation (release of granular β-hexoseaminidase) (FIG. 2B),[3],able to inhibit degranulation
same,melting point,,119 to 122 °C
